Results published in the NIST ThermoML archive (doi:10.1016/j.jct.2012.05.012).

Legend:
[1] = refractive index (Na D-line) (dimensionless); wn = mass fraction of the nth substance listed; details: 101 kPa, Liquid, Standard Abbe refractometry
[2] = wn = mass fraction of the nth substance listed; details: for surface tension liquid-gas: Maximal bubble pressure; for mass density: 101 kPa, Liquid, Vibrating tube method

CCCCn1cc[n+](C)c1.NCC(=O)[O-] [1-butyl-3-methylimidazolium glycinate] + O
Details	mass density [kg/m3]	refractive index	surface tension liquid-gas [mN/m]
[1], 293.15 K, w2 = 0.0081	–	1.4993	–
[1], 293.15 K, w2 = 0.0102	–	1.4968	–
[1], 293.15 K, w2 = 0.0121	–	1.4944	–
[1], 293.15 K, w2 = 0.014	–	1.4918	–
[1], 293.15 K, w2 = 0.0161	–	1.4896	–
[1], 298.15 K, w2 = 0.0081	–	1.4982	–
[1], 298.15 K, w2 = 0.0102	–	1.4954	–
[1], 298.15 K, w2 = 0.0121	–	1.4928	–
[1], 298.15 K, w2 = 0.014	–	1.4907	–
[1], 298.15 K, w2 = 0.0161	–	1.4879	–
[1], 303.15 K, w2 = 0.0081	–	1.497	–
[1], 303.15 K, w2 = 0.0102	–	1.4941	–
[1], 303.15 K, w2 = 0.0121	–	1.4916	–
[1], 303.15 K, w2 = 0.014	–	1.4895	–
[1], 303.15 K, w2 = 0.0161	–	1.4869	–
[1], 308.15 K, w2 = 0.0081	–	1.4955	–
[1], 308.15 K, w2 = 0.0102	–	1.4927	–
[1], 308.15 K, w2 = 0.0121	–	1.4907	–
[1], 308.15 K, w2 = 0.014	–	1.4884	–
[1], 308.15 K, w2 = 0.0161	–	1.4858	–
[1], 313.15 K, w2 = 0.0081	–	1.4943	–
[1], 313.15 K, w2 = 0.0102	–	1.4915	–
[1], 313.15 K, w2 = 0.0121	–	1.4893	–
[1], 313.15 K, w2 = 0.014	–	1.4872	–
[1], 313.15 K, w2 = 0.0161	–	1.4845	–
[1], 318.15 K, w2 = 0.0081	–	1.4931	–
[1], 318.15 K, w2 = 0.0102	–	1.4904	–
[1], 318.15 K, w2 = 0.0121	–	1.4879	–
[1], 318.15 K, w2 = 0.014	–	1.4855	–
[1], 318.15 K, w2 = 0.0161	–	1.4832	–
[1], 323.15 K, w2 = 0.0081	–	1.4917	–
[1], 323.15 K, w2 = 0.0102	–	1.4888	–
[1], 323.15 K, w2 = 0.0121	–	1.4864	–
[1], 323.15 K, w2 = 0.014	–	1.4838	–
[1], 323.15 K, w2 = 0.0161	–	1.4814	–
[2], 283.15 K, w2 = 0.0081	1121.2	–	45.7
[2], 283.15 K, w2 = 0.0091	–	–	45.9
[2], 283.15 K, w2 = 0.0102	–	–	46.1
[2], 283.15 K, w2 = 0.0118	–	–	46.3
[2], 283.15 K, w2 = 0.0129	1121.5	–	–
[2], 283.15 K, w2 = 0.0131	–	–	46.6
[2], 283.15 K, w2 = 0.018	1121.8	–	–
[2], 283.15 K, w2 = 0.0234	1122.2	–	–
[2], 283.15 K, w2 = 0.0293	1122.6	–	–
[2], 288.15 K, w2 = 0.0081	1118	–	45.5
[2], 288.15 K, w2 = 0.0091	–	–	45.7
[2], 288.15 K, w2 = 0.0102	–	–	45.9
[2], 288.15 K, w2 = 0.0118	–	–	46.2
[2], 288.15 K, w2 = 0.0129	1118.3	–	–
[2], 288.15 K, w2 = 0.0131	–	–	46.4
[2], 288.15 K, w2 = 0.018	1118.7	–	–
[2], 288.15 K, w2 = 0.0234	1119.1	–	–
[2], 288.15 K, w2 = 0.0293	1119.5	–	–
[2], 293.15 K, w2 = 0.0081	1114.8	–	45.3
[2], 293.15 K, w2 = 0.0091	–	–	45.5
[2], 293.15 K, w2 = 0.0102	–	–	45.7
[2], 293.15 K, w2 = 0.0118	–	–	46
[2], 293.15 K, w2 = 0.0129	1115.1	–	–
[2], 293.15 K, w2 = 0.0131	–	–	46.2
[2], 293.15 K, w2 = 0.018	1115.5	–	–
[2], 293.15 K, w2 = 0.0234	1115.9	–	–
[2], 293.15 K, w2 = 0.0293	1116.3	–	–
[2], 298.15 K, w2 = 0.0081	1111.5	–	45
[2], 298.15 K, w2 = 0.0091	–	–	45.2
[2], 298.15 K, w2 = 0.0102	–	–	45.4
[2], 298.15 K, w2 = 0.0118	–	–	45.7
[2], 298.15 K, w2 = 0.0129	1111.9	–	–
[2], 298.15 K, w2 = 0.0131	–	–	45.9
[2], 298.15 K, w2 = 0.018	1112.3	–	–
[2], 298.15 K, w2 = 0.0234	1112.7	–	–
[2], 298.15 K, w2 = 0.0293	1113.1	–	–
[2], 303.15 K, w2 = 0.0081	1108.4	–	44.8
[2], 303.15 K, w2 = 0.0091	–	–	45
[2], 303.15 K, w2 = 0.0102	–	–	45.2
[2], 303.15 K, w2 = 0.0118	–	–	45.5
[2], 303.15 K, w2 = 0.0129	1108.9	–	–
[2], 303.15 K, w2 = 0.0131	–	–	45.8
[2], 303.15 K, w2 = 0.018	1109.3	–	–
[2], 303.15 K, w2 = 0.0234	1109.7	–	–
[2], 303.15 K, w2 = 0.0293	1110.2	–	–
[2], 308.15 K, w2 = 0.0081	1105.4	–	44.5
[2], 308.15 K, w2 = 0.0091	–	–	44.7
[2], 308.15 K, w2 = 0.0102	–	–	44.9
[2], 308.15 K, w2 = 0.0118	–	–	45.2
[2], 308.15 K, w2 = 0.0129	1105.7	–	–
[2], 308.15 K, w2 = 0.0131	–	–	45.5
[2], 308.15 K, w2 = 0.018	1106.2	–	–
[2], 308.15 K, w2 = 0.0234	1106.6	–	–
[2], 308.15 K, w2 = 0.0293	1107.1	–	–
[2], 313.15 K, w2 = 0.0081	1102.2	–	44.2
[2], 313.15 K, w2 = 0.0091	–	–	44.4
[2], 313.15 K, w2 = 0.0102	–	–	44.6
[2], 313.15 K, w2 = 0.0118	–	–	44.9
[2], 313.15 K, w2 = 0.0129	1102.6	–	–
[2], 313.15 K, w2 = 0.0131	–	–	45.2
[2], 313.15 K, w2 = 0.018	1103	–	–
[2], 313.15 K, w2 = 0.0234	1103.4	–	–
[2], 313.15 K, w2 = 0.0293	1103.9	–	–
[2], 318.15 K, w2 = 0.0081	1099.2	–	43.7
[2], 318.15 K, w2 = 0.0091	–	–	43.9
[2], 318.15 K, w2 = 0.0102	–	–	44.1
[2], 318.15 K, w2 = 0.0118	–	–	44.4
[2], 318.15 K, w2 = 0.0129	1099.5	–	–
[2], 318.15 K, w2 = 0.0131	–	–	44.6
[2], 318.15 K, w2 = 0.018	1099.9	–	–
[2], 318.15 K, w2 = 0.0234	1100.3	–	–
[2], 318.15 K, w2 = 0.0293	1100.7	–	–
[2], 323.15 K, w2 = 0.0081	1096.1	–	43.3
[2], 323.15 K, w2 = 0.0091	–	–	43.5
[2], 323.15 K, w2 = 0.0102	–	–	43.7
[2], 323.15 K, w2 = 0.0118	–	–	44
[2], 323.15 K, w2 = 0.0129	1096.4	–	–
[2], 323.15 K, w2 = 0.0131	–	–	44.2
[2], 323.15 K, w2 = 0.018	1096.8	–	–
[2], 323.15 K, w2 = 0.0234	1097.2	–	–
[2], 323.15 K, w2 = 0.0293	1097.6	–	–
[2], 328.15 K, w2 = 0.0081	1092.9	–	42.9
[2], 328.15 K, w2 = 0.0091	–	–	43.1
[2], 328.15 K, w2 = 0.0102	–	–	43.3
[2], 328.15 K, w2 = 0.0118	–	–	43.5
[2], 328.15 K, w2 = 0.0129	1093.2	–	–
[2], 328.15 K, w2 = 0.0131	–	–	43.8
[2], 328.15 K, w2 = 0.018	1093.6	–	–
[2], 328.15 K, w2 = 0.0234	1094	–	–
[2], 328.15 K, w2 = 0.0293	1094.4	–	–
